Measured values: patent publication US6410552B1, “Benzoether and related compositions and methods” (Ortho-McNeil Pharmaceutical, Inc., priority 2000, dated 2002)

Target: T1, calcium channel (Oryctolagus cuniculus, UniProt P15381)
T1 construct: from tissue; host or cells: rabbit heart membranes
Assay: Assay for Inhibition of Nitrendipine Binding (3H-nitrendipine, heart membranes)
Conditions: displacement of 3H-nitrendipine (0.05-0.50 nM) from rabbit heart membranes, 90 minutes at 4° C.
Protocol: Female, New Zealand white rabbits (1-2 kg) are sacrificed by cervical dislocation, and the heart is immediately removed, cleaned and chopped into small pieces. The tissue is homogenized in 5×times volume of 0.05M Hepes buffer, pH 7.4. The homogenate is centrifuged at 4000 g for 10 minutes, and the supernatant is re-centrifuged at 42,000×g for 90 minutes. The resulting membrane pellet is resuspended (0.7 ml/g weight) in 0.05M Hepes, pH 7.4 and stored at […] until used. Each tube of the binding assay contains ^3H-nitrendipine (0.05-0.50 nM), buffer, membranes (0.10 ml), and test compound in a total volume of 1.0 ml. After 90 minutes at 4° C., the bound nitrendipine is separated from the unbound by filtration on Whatman GF/C filters. After rinsing, the filters are dried and counted in a liquid scintillation counter.
Non-specific binding of ^3H-nitrendipine (that amount bound in the presence of excess unlabelled nitrendipine) is subtracted from the total bound to obtain specifically bound radiolabeled nitrendipine. The amount of specifically bound nitrendipine in the presence of a test compound is compared to that amount bound in the absence of a compound. A percent displacement (or inhibition) can then be calculated.

T1 sequence (P15381 whole entry, other chains not shown): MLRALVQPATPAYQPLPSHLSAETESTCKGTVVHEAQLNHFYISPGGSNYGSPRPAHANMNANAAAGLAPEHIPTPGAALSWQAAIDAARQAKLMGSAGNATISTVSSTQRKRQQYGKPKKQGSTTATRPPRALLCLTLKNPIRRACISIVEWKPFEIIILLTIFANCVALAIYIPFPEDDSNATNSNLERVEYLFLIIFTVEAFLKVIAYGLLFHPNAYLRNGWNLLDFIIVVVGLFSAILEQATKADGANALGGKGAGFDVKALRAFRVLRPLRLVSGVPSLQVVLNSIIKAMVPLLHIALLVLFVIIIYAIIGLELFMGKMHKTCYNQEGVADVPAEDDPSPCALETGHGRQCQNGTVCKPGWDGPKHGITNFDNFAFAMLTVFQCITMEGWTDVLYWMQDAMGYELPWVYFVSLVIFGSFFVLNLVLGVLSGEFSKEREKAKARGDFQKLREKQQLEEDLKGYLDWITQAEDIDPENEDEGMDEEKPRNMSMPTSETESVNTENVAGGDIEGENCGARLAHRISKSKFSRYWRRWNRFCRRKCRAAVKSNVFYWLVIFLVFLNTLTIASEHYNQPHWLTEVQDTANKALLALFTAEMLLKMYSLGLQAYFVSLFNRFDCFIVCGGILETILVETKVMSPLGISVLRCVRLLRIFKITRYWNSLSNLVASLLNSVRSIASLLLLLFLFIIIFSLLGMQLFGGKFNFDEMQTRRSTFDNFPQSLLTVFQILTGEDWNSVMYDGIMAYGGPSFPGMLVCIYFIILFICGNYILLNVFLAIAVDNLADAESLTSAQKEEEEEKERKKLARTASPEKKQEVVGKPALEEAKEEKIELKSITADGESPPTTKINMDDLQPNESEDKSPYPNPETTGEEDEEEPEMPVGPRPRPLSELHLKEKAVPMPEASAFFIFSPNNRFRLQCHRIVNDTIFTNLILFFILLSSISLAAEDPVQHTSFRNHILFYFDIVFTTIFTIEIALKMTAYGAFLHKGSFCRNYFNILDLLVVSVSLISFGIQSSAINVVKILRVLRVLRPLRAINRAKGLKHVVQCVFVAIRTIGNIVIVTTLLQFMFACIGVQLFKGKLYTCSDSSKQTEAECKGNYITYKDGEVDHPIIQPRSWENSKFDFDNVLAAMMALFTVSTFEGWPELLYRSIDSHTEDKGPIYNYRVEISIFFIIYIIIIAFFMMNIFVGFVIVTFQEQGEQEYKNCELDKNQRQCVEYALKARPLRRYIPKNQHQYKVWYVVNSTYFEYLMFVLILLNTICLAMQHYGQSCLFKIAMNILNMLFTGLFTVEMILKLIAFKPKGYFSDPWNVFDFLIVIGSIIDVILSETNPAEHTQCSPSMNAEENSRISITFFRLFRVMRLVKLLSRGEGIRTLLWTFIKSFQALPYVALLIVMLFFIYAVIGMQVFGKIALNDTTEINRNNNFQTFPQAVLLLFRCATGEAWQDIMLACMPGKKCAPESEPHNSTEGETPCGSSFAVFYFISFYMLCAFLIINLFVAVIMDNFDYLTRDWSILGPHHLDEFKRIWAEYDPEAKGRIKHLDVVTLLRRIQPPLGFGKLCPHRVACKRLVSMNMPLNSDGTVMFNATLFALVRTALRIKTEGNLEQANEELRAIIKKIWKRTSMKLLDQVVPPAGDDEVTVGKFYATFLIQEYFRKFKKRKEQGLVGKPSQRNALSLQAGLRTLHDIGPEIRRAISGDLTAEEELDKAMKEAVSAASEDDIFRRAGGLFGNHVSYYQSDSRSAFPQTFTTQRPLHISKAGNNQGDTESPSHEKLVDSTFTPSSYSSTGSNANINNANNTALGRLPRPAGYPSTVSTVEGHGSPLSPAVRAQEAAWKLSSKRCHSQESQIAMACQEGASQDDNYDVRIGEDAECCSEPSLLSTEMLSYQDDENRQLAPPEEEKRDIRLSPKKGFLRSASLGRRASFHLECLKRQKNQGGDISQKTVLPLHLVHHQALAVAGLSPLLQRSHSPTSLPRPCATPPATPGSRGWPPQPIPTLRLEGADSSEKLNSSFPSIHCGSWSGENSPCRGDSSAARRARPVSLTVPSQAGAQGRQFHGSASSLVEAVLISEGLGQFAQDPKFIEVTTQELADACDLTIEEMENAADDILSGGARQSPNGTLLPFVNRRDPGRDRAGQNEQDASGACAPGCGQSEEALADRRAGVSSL
T1 sequence (P13806 27-960 partner limits assumed, other chains not shown): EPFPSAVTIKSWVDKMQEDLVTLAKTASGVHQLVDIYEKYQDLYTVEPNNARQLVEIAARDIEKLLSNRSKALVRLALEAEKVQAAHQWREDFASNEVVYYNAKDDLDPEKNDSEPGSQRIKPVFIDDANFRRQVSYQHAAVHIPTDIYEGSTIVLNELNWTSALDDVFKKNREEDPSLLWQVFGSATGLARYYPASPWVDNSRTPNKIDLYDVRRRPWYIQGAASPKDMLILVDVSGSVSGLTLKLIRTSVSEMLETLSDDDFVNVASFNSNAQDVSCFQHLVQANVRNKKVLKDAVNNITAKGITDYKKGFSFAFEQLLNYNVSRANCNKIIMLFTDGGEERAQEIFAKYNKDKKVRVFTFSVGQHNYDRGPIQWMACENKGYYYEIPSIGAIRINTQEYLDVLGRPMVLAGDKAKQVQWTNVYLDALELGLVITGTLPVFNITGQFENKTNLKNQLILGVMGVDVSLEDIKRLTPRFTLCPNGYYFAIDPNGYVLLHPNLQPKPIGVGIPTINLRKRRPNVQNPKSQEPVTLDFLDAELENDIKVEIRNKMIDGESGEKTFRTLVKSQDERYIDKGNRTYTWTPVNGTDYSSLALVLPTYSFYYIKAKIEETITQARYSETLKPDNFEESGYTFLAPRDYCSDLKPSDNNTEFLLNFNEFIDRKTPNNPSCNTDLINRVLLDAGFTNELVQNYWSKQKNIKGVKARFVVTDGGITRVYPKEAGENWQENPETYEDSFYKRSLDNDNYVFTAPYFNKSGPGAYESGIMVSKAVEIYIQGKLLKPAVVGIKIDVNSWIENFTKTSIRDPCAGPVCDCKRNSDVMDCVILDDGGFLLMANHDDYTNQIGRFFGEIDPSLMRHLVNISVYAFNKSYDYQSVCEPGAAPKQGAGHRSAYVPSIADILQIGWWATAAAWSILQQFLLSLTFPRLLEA
T1 sequence (P13806 961-1106 partner limits assumed, other chains not shown): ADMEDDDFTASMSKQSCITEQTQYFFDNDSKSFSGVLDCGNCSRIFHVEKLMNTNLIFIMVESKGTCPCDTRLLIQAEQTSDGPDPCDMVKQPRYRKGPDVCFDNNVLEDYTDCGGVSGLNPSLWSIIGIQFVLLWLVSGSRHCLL

Row | SMILES | IC50 [nM]
1 | CC1=C(C(=O)OCCN(C)Cc2ccccc2)C(c2cccc(Cl)c2Cl)C2=C(COc3ccccc3S2(=O)=O)N1 (stereo not shown) [Compound 6, 1H-[1,5]Benzoxathiepino[3,4-b]pyridine-3-carboxylic acid, 4-(2,3-dichlorophenyl)4,11-dihydro-2-methyl-, 2-[methyl(phenylmethyl)amino]ethyl ester, 5,5-dioxide] | 21
2 | COC(=O)C1=C(C)NC2=C(C1c1cccc([N+](=O)[O-])c1)S(=O)(=O)c1ccccc1OC2 (stereo not shown) [Compound 3, 1H-[1,5]Benzoxathiepino[3,4-b]pyridine-3-carboxylic acid, 4,11-dihydro-2-methyl-4-(3-nitrophenyl)-, methyl ester, 5,5-dioxide] | 33
3 | CC1=C(C(=O)OCCN(C)Cc2ccccc2)C(c2cccc(Cl)c2)C2=C(COc3ccccc3S2(=O)=O)N1 (stereo not shown) [Compound 5, 1H-[1,5]Benzoxathiepino[3,4-b]pyridine-3-carboxylic acid, 4-(3-chlorophenyl)-4,11-dihydro-2-methyl-, 2-[methyl(phenylmethyl)amino]ethyl ester, 5,5-dioxide] | 109
4 | CC1=C(C(=O)OCCN(C)Cc2ccccc2)C(c2cccc([N+](=O)[O-])c2)C2=C(COc3ccccc3S2(=O)=O)N1 (stereo not shown) [Compound 4, 1H-[1,5]Benzoxathiepino[3,4-b]pyridine-3-carboxylic acid, 4,11-dihydro-2-methyl-4-(3-nitrophenyl)-, 2-[methyl(phenylmethyl)amino]ethyl ester, 5,5-dioxide] | 45
5 | CC1=C(C(=O)OCCN(C)Cc2ccccc2)C(c2c(F)cccc2Cl)C2=C(COc3ccccc3S2(=O)=O)N1 (stereo not shown) [Compound 7, 1H-[1,5]Benzoxathiepino[3,4-b]pyridine-3-carboxylic acid, 4-(2-chloro-6-fluorophenyl)-4,11-dihydro-2-methyl-, 2-[methyl(phenylmethyl)amino]ethyl ester, 5,5-dioxide] | 47
6 | CC1=C(C(=O)OCCN(C)Cc2ccccc2)C(c2ccccc2Cl)C2=C(COc3ccccc3S2(=O)=O)N1 (stereo not shown) [Compound 2, 1H-[1,5]Benzoxathiepino[3,4-b]pyridine-3-carboxylic acid, 4-(2-chlorophenyl)-4,11-dihydro-2-methyl-, 2-[methyl(phenylmethyl)amino]ethyl ester, 5,5-dioxide] | 59
7 | COC(=O)C1=C(C)NC2=C(C1c1ccccc1Cl)S(=O)(=O)c1ccccc1OC2 (stereo not shown) [Compound 1, 1H-[1,5]Benzoxathiepino[3,4-b]pyridine-3-carboxylic acid, 4-(2-chlorophenyl)-4,11-dihydro-2-methyl-, methyl ester, 5,5-dioxide] | 61
